From article PMC9257445 (Journal of Pharmaceutical Analysis, 2021)

Biological target: T1, tumor necrosis factor receptor type 1 (TNF-R1) (Homo sapiens, UniProt P19438)
T1 sequence (P19438 30-455): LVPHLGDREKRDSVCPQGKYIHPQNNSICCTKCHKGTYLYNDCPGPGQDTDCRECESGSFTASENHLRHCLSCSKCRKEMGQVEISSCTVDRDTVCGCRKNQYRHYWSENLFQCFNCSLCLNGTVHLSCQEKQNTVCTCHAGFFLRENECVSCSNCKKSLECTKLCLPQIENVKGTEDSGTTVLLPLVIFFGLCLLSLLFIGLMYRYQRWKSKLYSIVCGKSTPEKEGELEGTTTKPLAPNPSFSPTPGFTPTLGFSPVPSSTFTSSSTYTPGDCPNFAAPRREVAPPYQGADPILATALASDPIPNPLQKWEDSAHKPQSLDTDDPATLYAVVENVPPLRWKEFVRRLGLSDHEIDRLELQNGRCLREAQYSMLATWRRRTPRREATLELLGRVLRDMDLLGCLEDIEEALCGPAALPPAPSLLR
Assay: SPR
Type: binding

For `COc1ccc(C(C)=O)c(O)c1` [paeonol], the Kd was 11.8 µM.
